# Laboratory results taken from article PMC7531004, “Discovery of gramicidin A analogues with altered activities by multidimensional screening of a one-bead-one-compound library” (Nature Communications, 2020).
# Several values for one entry are separate records, joined by “and”; a condition that tells them apart may be missing. Equal values may be shown once. Read-outs that look alike come from different tables or passages of the source. Where a SMILES comes first, the peptide text is derived from it. [ ]: non-standard residue; d: D form. The star is where a group is joined. NHCH2CH2OH = OCCN*; For = O=C*
# Tests used:
# rabbit red blood cells = settings: red cells of rabbit, 2 h
# Procedure: Second, we examined the cytotoxicity toward mammalian cancer cells and hemolytic activity of 1. […] Hemolytic activity was evaluated by monitoring hemoglobin leakage from rabbit red blood cells as a consequence of membrane damage. The concentration of 1 required to cause 10% hemoglobin leakage (HC10) was 160 nM. Thus, the P388 cytotoxicity of 1 was 28-fold more sensitive than its hemolytic activity.
# Hemolysis assay of purified peptides. […]
# with DMSO to various concentrations as 3-fold serial dilution. A 50% suspension of rabbit blood in Alsever's solution was obtained from Nippon Bio -Supp. Center . The blood suspension (250 µL) w as diluted with phosphate buffered saline (no calcium, no magnesium, 1.00 mL). The resultant suspension was centrifuged at 1000 × g for 3 min at 8 °C. The supernatant was discarded, and the collected cells were resuspended in phosphate buffered saline (no calcium, no magnesium, 1.00 mL). The same procedure was repeated (× 3). The resultant suspension (100 µL) was diluted with phosphate buffered saline (no calcium, no magnesium, 4.90 mL) to give 0.2% red blood cells suspension. The 0.2% red blood cells suspension (95.0 µL) and each dilution series of the purified peptide in DMSO (5 .0 µL) were mixed in 2 mL microtube.
# supernatant was transferred to a 96-well plate (TR5003, TrueLine). The absorbance of each well at 415 nm was measured using a Thermo Scientific Multiskan GO (Thermo Fisher Scientific). The mixture of Triton X-100/H2O (5/95, 2.0 µL), DMSO (5.0 µL), and the 0.2% red blood cells suspension (95.0 µL) was used to determine 100% hemolysis. The mixture of DMSO (5.0 µL) and the 0.2% red blood cells suspension (95.0 µL) was used to determine 0% hemolysis. The hemolytic activities of tested peptides ( I) were normalized against 100% hemolysis by Triton X -100 (Imax) and 0% hemolysis by DMSO (I0) according to Supplementary Equation 3, where Ix is the UV absorbance.
# I = 100 × (Ix – I0) / (Imax – I0) (3)
# The hemolytic activities of the purified peptides were evaluated as the concentrations causing 10% hemolysis (HC10, nM) by means of three replicates. Sigmoidal curve fittings were performed on GraphPad Prism (GraphPad software, Supplementary Figure 7).
# [1] = tested on: Streptococcus pneumoniae NBRC 102642; settings: for Antibacterial activity MIC: NBRC 102642; for antibacterial activity/MIC: S. pneumoniae
# Procedure: (§1) Third, 1 was subjected to five pathogenic Gram-positive bacteria.
# (§2) Evaluation of antibacterial spectra of purified peptides. The MIC assay was performed according to the Clinical and Laboratory Standards Institute protocols. The antibacterial activities of the purified peptides A1, B01–B04, B11–B13, B21, and B22 were measured using the broth microdilution method. 6 Serial dilutions of the peptides were prepared in cation adjusted Mueller Hinton Broth. Each dilution (100 µL) was dispensed to each well of the round-bottom plate to obtain final concentrations ranging from 64 µg/mL to 0.00024 µg/mL. Bacteria were grown at 37 °C overnight on Tryptic Soy Broth or Mueller Hinton Broth agar plates.
# (§3) The bacterial colonies were suspended in 0.9% saline to obtain OD 625 of 0.08–0.13 using a spectrophotometer UV-1280 (Shimadzu). The resultant suspension was diluted with cation adjusted Mueller Hinton Broth (1/20). The resultant mixture (10 .0 µL) was inoculated to each well of the plates (approximately 5 × 10^4 CFU/well), mixed, and incubated at 37 °C for 18–24 h. The MIC value was determined as the minimum concentration that inhibited growth of bacteria. For Streptococcus species, cation adjusted Mueller Hinton Broth supplemented with 5% laked horse blood was used. […]
# [2] = tested on: Streptococcus pyogenes SSI-9; settings: for antibacterial activity/MIC: S. pyogenes; for Antibacterial activity MIC: SSI-9
# Procedure: as §1, §2, §3
# [3] = tested on: Streptococcus agalactiae JCM5671; settings: for Antibacterial activity MIC: JCM5671; for antibacterial activity/MIC: S. agalactiae
# Procedure: as §1, §2, §3
# [4] = tested on: Enterococcus faecalis JCM5803; settings: for antibacterial activity/MIC: E. faecalis; for Antibacterial activity MIC: JCM5803
# Procedure: as §1, §2, §3
# [5] = tested on: Listeria monocytogenes 10403S; settings: for Antibacterial activity MIC: 10403S; for antibacterial activity/MIC: L. monocytogenes
# Procedure: as §1, §2, §3
# [6] = H+/Na+ transport assay of purified peptides; settings: for Supplementary Figure 5 dose-response value (H+/Na+ transport): three replicate lines
# [7] = Membrane disruption assay of purified peptides (carboxyfluorescein leakage); format: biochemical; parameters: key: % lysis; Triton X-100 = 100%, DMSO = 0%; settings: three replicate lines
# Procedure: Membrane disruption assay of purified peptides. 5(6)-Carboxyfluorescein (CF)-encapsulated large […]
# through Nuclepore polycarbonate filters mounted in the mini-extruder apparatus. A solution of egg yolk phosphatidylcholine (EYPC, 22.0 mg, 28.9 µmol) in CHCl3 (225 µL) and egg yolk phosphatidylglycerol (1.2 0 […]
# mM HEPES, 100 mM NaCl, 20 mM CF) by sonication. After five -times freeze-thaw cycles, the lipid […]
# concentration of the resultant CF -encapsulated LUV suspension was deduced from the phosphatidylcholine concentration determined by using Phospholipid C -Test Wako. The lipid concentration of the LUV […]
# as 5-fold serial dilution. The solution of peptide (2.0 µL) and the CF-encapsulated LUV suspension (200 […]
# The resultant suspension was incubated at room temperature for 30 min. The fluorescence (Ex. 490 nm/Em. 517 nm) of each well was measured on Gemini EM microplate reader. Triton X-100/H2O (5/95, 3.0 µL), DMSO (2.0 µL), and the LUV suspension were mixed in each plate to determine 100% lysis. […]
# was used to determine 0% lysis. The membrane disruption activities of tested peptides ( I) were normalized against 100% lysis by Triton X-100 (Imax) and 0% lysis by DMSO ( I0) according to Supplementary Equation 2 , where Ix is the fluorescence intensity.
# The membrane disruption activities of the purified peptides were plotted as means of three replicates (Supplementary Figure 1).
# [8] = read-out: EC50, H+/Na+ transport assay, 1st experiment
# [9] = read-out: EC50, H+/Na+ transport assay, 2nd experiment
# [10] = read-out: EC50, H+/Na+ transport assay, 3rd experiment
# [11] = read-out: H+/Na+ transport activity EC50, EYPC/EYPG (19:1) LUVs
# [12] = read-out: H+/Na+ transport activity/EC50, mean ± SD of three independent experiments
Antibacterial activity MIC [1] [µM],antibacterial activity/MIC [1] [µg/mL],antibacterial activity/MIC [2] [µg/mL],Antibacterial activity MIC [2] [µM],Antibacterial activity MIC [3] [µM],antibacterial activity/MIC [3] [µg/mL],antibacterial activity/MIC [4] [µg/mL],Antibacterial activity MIC [4] [µM],Antibacterial activity MIC [5] [µM],antibacterial activity/MIC [5] [µg/mL],Structure (SMILES),Hemolytic activity HC10 (concentration causing 10% hemolysis) (rabbit red blood cells) [nM],Supplementary Figure 5 dose-response value (H+/Na+ transport) ([6]; concentration 0.000512 nM),Supplementary Figure 5 dose-response value (H+/Na+ transport) ([6]; concentration 0.00256 nM),Supplementary Figure 5 dose-response value (H+/Na+ transport) ([6]; concentration 0.0128 nM),Supplementary Figure 5 dose-response value (H+/Na+ transport) ([6]; concentration 0.064 nM),Supplementary Figure 5 dose-response value (H+/Na+ transport) ([6]; concentration 0.32 nM),Supplementary Figure 5 dose-response value (H+/Na+ transport) ([6]; concentration 1.6 nM),Supplementary Figure 5 dose-response value (H+/Na+ transport) ([6]; concentration 8 nM),Supplementary Figure 5 dose-response value (H+/Na+ transport) ([6]; concentration 40 nM),Supplementary Figure 5 dose-response value (H+/Na+ transport) ([6]; concentration 200 nM),also measured
0.0083,0.016,0.13,0.067,8.6,16,0.25,0.13,2.1,4,CC(C)C[C@@H](NC(=O)[C@H](C)NC(=O)[C@H](NC(=O)[C@H](C)NC(=O)CNC(=O)[C@@H](NC=O)C(C)C)C(C)C)C(=O)N[C@H](C(=O)N[C@@H](C(=O)N[C@@H](Cc1c[nH]c2ccccc12)C(=O)N[C@@H](C(=O)N[C@@H](Cc1c[nH]c2ccccc12)C(=O)N[C@H](CC(C)C)C(=O)N[C@@H](Cc1c[nH]c2ccccc12)C(=O)N[C@H](CC(C)C)C(=O)N[C@@H](Cc1c[nH]c2ccccc12)C(=O)NCCO)C(C)C)C(C)C)C(C)C [B02] (For-VGA[dV]A[dL]V[dV]W[dV]W[dL]W[dL]W-NHCH2CH2OH),1400,0.2643 and 0.7827 and 0.1241,2.146 and 0.0547 and 1.671,4.163 and 0.6112 and 1.64,7.246 and 2.883 and 3.652,11.0985 and 10.392 and 10.3413,29.1914 and 27.2825 and 29.9486,56.3118 and 49.6431 and 51.0872,73.3306 and 69.0608 and 69.1921,73.6961 and 72.6071 and 72.9778,"Supplementary Figure 5 dose-response value (H+/Na+ transport) ([6]; concentration 1000 nM): 75.3536 and 79.2012 and 75.9728; Supplementary Figure 5 dose-response value (H+/Na+ transport) ([6]; concentration 5000 nM): 75.4417 and 72.7674 and 77.9824; EC50 [6, 8]: 3.08 nM; EC50 [6, 9]: 1.68 nM; EC50 [6, 10]: 5.38 nM; EC50 [6, 11]: 3.4 nM; EC50 [6, 12]: 3.38 ± 1.87 nM; Supplementary Figure 1 dose-response value ([7]; concentration 0.000512 nM): 9.02 and 15.736 and 15.2512; Supplementary Figure 1 dose-response value ([7]; concentration 0.00256 nM): 10.3575 and 0.7916 and 7.576; Supplementary Figure 1 dose-response value ([7]; concentration 0.0128 nM): 7.7612 and 17.627 and 12.0633; Supplementary Figure 1 dose-response value ([7]; concentration 0.064 nM): 6.7018 and 5.872 and 12.3383; Supplementary Figure 1 dose-response value ([7]; concentration 0.32 nM): 3.446 and 4.916 and 7.303; Supplementary Figure 1 dose-response value ([7]; concentration 1.6 nM): 10.6531 and 8.102 and 5.996; Supplementary Figure 1 dose-response value ([7]; concentration 8 nM): 14.5931 and 12.2206 and 13.5025; Supplementary Figure 1 dose-response value ([7]; concentration 40 nM): 11.4708 and 19.6235 and 9.068; Supplementary Figure 1 dose-response value ([7]; concentration 200 nM): 17.1246 and 21.9524 and 27.5088; Supplementary Figure 1 dose-response value ([7]; concentration 1000 nM): 23.4943 and 22.4951 and 16.9683; Supplementary Figure 1 dose-response value ([7]; concentration 5000 nM): 38.5863 and 36.6933 and 43.5874"
0.0042,0.0078,0.13,0.068,17,32,1,0.54,4.3,8,CC(C)C[C@@H](NC(=O)[C@H](C)NC(=O)CNC(=O)[C@@H](NC=O)C(C)C)C(=O)N[C@@H](C)C(=O)N[C@@H](C(=O)N[C@H](C(=O)N[C@@H](C(=O)N[C@@H](Cc1c[nH]c2ccccc12)C(=O)N[C@@H](C(=O)N[C@@H](Cc1c[nH]c2ccccc12)C(=O)N[C@@H](C(=O)N[C@@H](Cc1c[nH]c2ccccc12)C(=O)N[C@@H](C(=O)N[C@@H](Cc1c[nH]c2ccccc12)C(=O)NCCO)C(C)C)C(C)C)C(C)C)C(C)C)C(C)C)C(C)C [B03] (For-VGA[dL]A[dV]V[dV]W[dV]W[dV]W[dV]W-NHCH2CH2OH),2000,3.426 and 4.542 and 4.454,4.063 and 4.369 and 6.1349,8.086 and 3.88 and 7.199,11.12 and 10.2864 and 11.0165,19.1274 and 20.4439 and 18.4811,44.4719 and 42.2282 and 45.2028,70.1046 and 68.0194 and 61.5034,68.5122 and 68.0449 and 67.6654,74.8622 and 71.9344 and 68.9589,"Supplementary Figure 5 dose-response value (H+/Na+ transport) ([6]; concentration 1000 nM): 72.6177 and 71.4474 and 69.5798; Supplementary Figure 5 dose-response value (H+/Na+ transport) ([6]; concentration 5000 nM): 79.6141 and 83.2523 and 73.0858; EC50 [6, 8]: 1.77 nM; EC50 [6, 9]: 1.01 nM; EC50 [6, 10]: 1.18 nM; EC50 [6, 11]: 1.3 nM; EC50 [6, 12]: 1.32 ± 0.4 nM; Supplementary Figure 1 dose-response value ([7]; concentration 0.000512 nM): 5.505 and 15.3461 and 13.2964; Supplementary Figure 1 dose-response value ([7]; concentration 0.00256 nM): 8.036 and 15.949 and 9.456; Supplementary Figure 1 dose-response value ([7]; concentration 0.0128 nM): 13.2228 and 16.5208 and 14.0976; Supplementary Figure 1 dose-response value ([7]; concentration 0.064 nM): 9.063 and 6.7749 and 3.531; Supplementary Figure 1 dose-response value ([7]; concentration 0.32 nM): 12.8598 and 15.0844 and 11.8922; Supplementary Figure 1 dose-response value ([7]; concentration 1.6 nM): 5.299 and 14.829 and 8.996; Supplementary Figure 1 dose-response value ([7]; concentration 8 nM): 22.9494 and 19.7369 and 18.966; Supplementary Figure 1 dose-response value ([7]; concentration 40 nM): 32.4215 and 16.7903 and 25.2195; Supplementary Figure 1 dose-response value ([7]; concentration 200 nM): 37.1629 and 34.3426 and 29.4644; Supplementary Figure 1 dose-response value ([7]; concentration 1000 nM): 37.6674 and 31.8257 and 42.0921; Supplementary Figure 1 dose-response value ([7]; concentration 5000 nM): 72.3831 and 71.3728 and 73.9246"
